# Earlier results, collected in PubChem BioAssay AID1259409 (Chemical Carcinogenesis Research Information System (CCRIS), 2018).
# System: rodent chemically induced tumor inhibition, incidence and multiplicity
# Test: CCRIS tumor inhibitor studies
# Conditions: Dose [Inhibitor]: 0, Route [Inhibitor]: SUBCUTANEOUS, Species: RAT, Strain/Sex: WISTAR/MALE, Promoter: NONE USED
compound,measurement,setting,value
CCC(C)C(NC(=O)C(C)NC(=O)C(Cc1cnc[nH]1)NC(=O)C1CCCN1C(=O)CNC(=O)C(CC(C)C)NC(=O)C(CC(C)C)NC(=O)C(Cc1ccc(O)cc1)NC(=O)CNC(=O)C(C)NC(=O)C(CO)NC(=O)C(CC(N)=O)NC(=O)C(CC(C)C)NC(=O)C(NC(=O)C(Cc1c[nH]c2ccccc12)NC(=O)CN)C(C)O)C(=O)NC(CC(=O)O)C(=O)NC(CC(N)=O)C(=O)NC(Cc1c[nH]cn1)C(=O)NC(CCCNC(=N)N)C(=O)NC(CO)C(=O)NC(Cc1ccccc1)C(=O)NC(Cc1cnc[nH]1)C(=O)NC(CC(=O)O)C(=O)NC(CCCCN)C(=O)NC(Cc1ccc(O)cc1)C(=O)NCC(=O)NC(CC(C)C)C(=O)NC(C)C(N)=O (stereo not drawn),"tumour outcome (control, treated, inhibition, significance)","Carcinogen: AZOXYMETHANE, 25843-45-2, 4 UG/KG BW IN OLIVE OIL 1/2 D FOR DURATION OF STUDY (STUDY DURATION: 45 WK), Target Tissue: Type of Lesion: COLON: ADENOMA OR ADENOCARCINOMA, Dose [Carcinogen]: 7.4 MG/KG BW IN 0.9% SALINE 1/WK FOR 10 WK","15/19 (79%), 7/19 (37%), 53%, p<0.05"
same,"tumour outcome (control, treated, inhibition, significance)","Carcinogen: N-METHYL-N'-NITRO-N-NITROSOGUANIDINE, 70-25-7, 2 UG/KG BW IN OLIVE OIL 1/2 WK FOR 26 WK BEGINNING POST CARCINOGEN TREATMENT (STUDY DURATION: 52 WK), Target Tissue: Type of Lesion: STOMACH: ADENOCARCINOMA, Dose [Carcinogen]: 50 UG/ML IN DRINKING WATER FOR 25 WK","10/20 (50%), 10/20 (50%), 0%, not significant"
same,"tumour outcome (control, treated, inhibition, significance)","Carcinogen: N-METHYL-N'-NITRO-N-NITROSOGUANIDINE, 70-25-7, 4 UG/KG BW IN OLIVE OIL 1/2 WK FOR 26 WK BEGINNING POST CARCINOGEN TREATMENT (STUDY DURATION: 52 WK), Target Tissue: Type of Lesion: STOMACH: ADENOCARCINOMA, Dose [Carcinogen]: 50 UG/ML IN DRINKING WATER FOR 25 WK","10/20 (50%), 3/20 (15%), 70%, p<0.01"
